Reference: US10065990B2, “Cyclic peptide compound, and preparation method, pharmaceutical composition and use thereof” (HANGZHOU GUANYU BIO-MEDICAL CO., LTD, priority 2013, dated 2018)
Read-outs that look alike come from different tables or passages of the source.

Columns and labels:
[1] = test system: U937 (human leukemia cells); assay: MTT cancer cell growth inhibition; assay type: cell-based; settings: Homo sapiens, U-937, 72 h, MTT
Summary of the method: (§1)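 GI50 values come from viability measured by MTT reduction at 570 nm. Plated overnight at 1500 cells per well, cultures received drug in three parallel wells across 10^−5–10^−10 M final and were incubated 72 h at 37° C. under 5% CO2 before MTT for 4 h.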

[2] = test system: BGC-823 (human gastric cancer cells); assay: MTT cancer cell growth inhibition; assay type: cell-based; settings: Homo sapiens, BGC-823, 72 h, MTT
Summary of the method: as §1

[3] = test system: Hela (human cervical cancer cells); assay: MTT cancer cell growth inhibition; assay type: cell-based; settings: Homo sapiens, HeLa, 72 h, MTT
Summary of the method: as §1

[4] = test system: MCF-7 (human breast cancer cells); assay: MTT cancer cell growth inhibition; assay type: cell-based; settings: Homo sapiens, MCF7, 72 h
Summary of the method: as §1

[5] = test system: Huh-7 (human hepatoma cells); assay: MTT cancer cell growth inhibition; assay type: cell-based; settings: Homo sapiens, Huh-7, 72 h, MTT, 72 hours incubation, Huh-7 cells; read-out: GI50 Huh-7
Summary of the method: as §1

[6] = test system: HT1080 (human fibrosarcoma cells); assay: MTT cancer cell growth inhibition; assay type: cell-based; settings: Homo sapiens, HT-1080, 72 h, MTT
Summary of the method: as §1

[7] = test system: N-87 (human gastric cancer cells); assay: MTT cancer cell growth inhibition; assay type: cell-based; settings: Homo sapiens, 72 h, MTT, 72 hours incubation, N-87 cells; read-out: GI50 N-87
Summary of the method: as §1

[8] = test system: DU145 (human prostate cancer cells); assay: MTT cancer cell growth inhibition; assay type: cell-based; settings: Homo sapiens, DU-145, 72 h, MTT
Summary of the method: as §1

[9] = test system: MOLT-4 (human acute lymphoblastic leukemia cells); assay: MTT cancer cell growth inhibition; assay type: cell-based; settings: Homo sapiens, MOLT-4, 72 h, MTT
Summary of the method: as §1

[10] = test system: Bel-7402 (human hepatoma cells); assay: MTT cancer cell growth inhibition; assay type: cell-based; settings: Homo sapiens, Bel-7402, 72 h, MTT, 72 hours incubation, Bel-7402 cells; read-out: GI50 Bel-7402
Summary of the method: as §1

[11] = test system: PANC-1 (Pac-1, human pancreatic cancer cells); assay: MTT cancer cell growth inhibition; assay type: cell-based; settings: Homo sapiens, PANC-1, 72 h, MTT
Summary of the method: as §1

[12] = test system: MDA-MB-231 (breast cancer cells); assay: MTT cancer cell growth inhibition; assay type: cell-based; settings: Homo sapiens, MDA-MB-231, 72 h, read-out: GI50 MDA-MB-231, MTT, 72 hours incubation, MDA-MB-231 cells
Summary of the method: as §1

[13] = test system: A549 (human lung cancer cells); assay: MTT cancer cell growth inhibition; assay type: cell-based; settings: Homo sapiens, A549, 72 h, MTT
Summary of the method: as §1

[14] = test system: SGC-7901 (human gastric cancer cells); assay: MTT cancer cell growth inhibition; assay type: cell-based; settings: Homo sapiens, SGC-7901, 72 h, MTT, 72 hours incubation, SGC-7901 cells; read-out: GI50 SGC-7901
Summary of the method: as §1

[15] = test system: HCC827 (human non-small cell lung cancer cells); assay: MTT cancer cell growth inhibition; assay type: cell-based; settings: Homo sapiens, HCC827, 72 h, MTT, 72 hours incubation, HCC827 cells; read-out: GI50 HCC827
Summary of the method: as §1

HDAC1 = HDAC1 (Homo sapiens, UniProt Q13547); assay: HDAC biochemical activity measurement (fluorescent substrate deacetylation);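 note: fluorogenic acetyl-lysine substrate (20 µM) deacetylated by HDAC1, then developer releases fluorophore read at 360 nm excitation and 460 nm emission, inhibitor incubated 30 min at 37 °C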
HDAC11 = target: T1, HDAC11 (Homo sapiens, UniProt Q96DB2); assay: as above;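 note: HDAC11 enzyme acting on an acetyl-lysine fluorogenic substrate, then a developer frees the fluorophore, read at excitation 360 nm and emission 460 nm, IC50 over a compound dilution series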
T1 sequence (Q96DB2 1-347): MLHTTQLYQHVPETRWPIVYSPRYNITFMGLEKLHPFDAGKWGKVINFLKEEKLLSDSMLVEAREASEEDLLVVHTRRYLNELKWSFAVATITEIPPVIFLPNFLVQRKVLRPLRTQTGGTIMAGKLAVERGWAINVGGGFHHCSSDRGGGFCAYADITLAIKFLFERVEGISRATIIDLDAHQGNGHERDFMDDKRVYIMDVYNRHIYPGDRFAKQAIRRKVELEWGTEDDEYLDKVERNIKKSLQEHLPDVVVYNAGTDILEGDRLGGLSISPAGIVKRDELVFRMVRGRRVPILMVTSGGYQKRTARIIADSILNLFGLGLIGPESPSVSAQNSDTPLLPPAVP

HDAC8 = target: T2, HDAC8 (Homo sapiens, UniProt Q9BY41); assay: as above; settings: 37° C. 30 minutes
T2 sequence (Q9BY41 1-377): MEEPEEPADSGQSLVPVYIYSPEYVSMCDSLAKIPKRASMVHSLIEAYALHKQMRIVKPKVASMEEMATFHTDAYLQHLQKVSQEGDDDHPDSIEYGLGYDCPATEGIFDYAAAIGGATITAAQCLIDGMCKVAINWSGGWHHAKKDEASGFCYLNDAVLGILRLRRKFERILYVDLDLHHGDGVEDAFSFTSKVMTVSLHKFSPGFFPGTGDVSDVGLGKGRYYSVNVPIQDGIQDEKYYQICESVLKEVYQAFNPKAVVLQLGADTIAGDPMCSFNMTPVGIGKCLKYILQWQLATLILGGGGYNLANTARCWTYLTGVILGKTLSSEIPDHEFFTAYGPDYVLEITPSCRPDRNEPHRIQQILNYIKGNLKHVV

[16] = 72 hours, present invention, read-out: GI50 U937, a
[17] = 72 hours incubation, read-out: GI50 BG
[18] = 72 hours, present invention, read-out: GI50 BGC823, a
[19] = 72 hours incubation, read-out: GI50 Hela
[20] = 72 hours, present invention, read-out: GI50 Hela, a
[21] = 72 hours incubation, read-out: GI50 MCF
[22] = 72 hours, present invention, read-out: GI50 MCF7, a
[23] = 72 hours incubation, read-out: GI50 HT1
[24] = 72 hours, present invention, read-out: GI50 HT1080, a
[25] = 72 hours incubation, read-out: GI50 Du1
[26] = 72 hours, present invention, read-out: GI50 Du145, a
[27] = 72 hours incubation, read-out: GI50 Mol
[28] = 72 hours, present invention, read-out: GI50 Molt-4, a
[29] = 72 hours, present invention, read-out: GI50 PANC-1, a
[30] = 72 hours incubation, read-out: GI50 A54
[31] = 72 hours, present invention, read-out: GI50 A549, a
[32] = HDAC1, 37° C. 30 minutes, read-out: IC50 HDAC1
[33] = Table 2, read-out: IC50 HDAC1, a (compounds of the present invention)
[34] = read-out: IC50 HDAC11, HDAC11, 37° C. 30 minutes
[35] = U937 cells, 72 hours incubation, read-out: GI50 U93
[36] = BGC-823 cells, 72 hours incubation, read-out: GI50 BG
[37] = Hela cells, 72 hours incubation, read-out: GI50 Hela
[38] = MCF-7 cells, 72 hours incubation, read-out: GI50 MCF
[39] = HT1080 cells, 72 hours incubation, read-out: GI50 HT1
[40] = DU145 cells, 72 hours incubation, read-out: GI50 Du1
[41] = MOLT-4 cells, 72 hours incubation, read-out: GI50 Mol
[42] = PANC-1 cells, 72 hours incubation, read-out: GI50 PAN
[43] = A549 cells, 72 hours incubation, read-out: GI50 A54

Chain of HDAC1 (Q13547 whole entry, species assumed): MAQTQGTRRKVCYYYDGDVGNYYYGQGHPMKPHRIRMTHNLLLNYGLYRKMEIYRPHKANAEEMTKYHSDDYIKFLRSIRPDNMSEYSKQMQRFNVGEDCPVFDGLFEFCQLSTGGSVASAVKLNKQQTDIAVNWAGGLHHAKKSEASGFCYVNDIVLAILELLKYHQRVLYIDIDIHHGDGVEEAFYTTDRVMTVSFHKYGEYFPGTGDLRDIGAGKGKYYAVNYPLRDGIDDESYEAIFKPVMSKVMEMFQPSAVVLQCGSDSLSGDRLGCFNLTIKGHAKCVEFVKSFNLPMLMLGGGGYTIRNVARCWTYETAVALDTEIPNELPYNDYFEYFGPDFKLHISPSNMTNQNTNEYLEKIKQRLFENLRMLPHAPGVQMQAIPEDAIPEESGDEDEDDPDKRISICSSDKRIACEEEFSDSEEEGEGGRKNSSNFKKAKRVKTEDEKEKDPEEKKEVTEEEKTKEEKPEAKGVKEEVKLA

GI50 [1, 16] [nM] | GI50 [2, 18] [nM] | GI50 [5] [nM] | GI50 [7] [nM] | GI50 [10] [nM] | GI50 [12] [nM] | GI50 [14] [nM] | GI50 [15] [nM] | IC50 (HDAC1; [32]) [nM] | IC50 (HDAC11; [34]) [nM] | IC50 (HDAC8) [nM] | GI50 [1, 35] [nM] | GI50 [2, 36] [nM] | GI50 [3, 37] [nM] | GI50 [4, 38] [nM] | GI50 [6, 39] [nM] | GI50 [8, 40] [nM] | GI50 [9, 41] [nM] | GI50 [11, 42] [nM] | GI50 [13, 43] [nM] | Structure (SMILES) | further results
8 | 31 | 46 | 29 | 82 | 91 | 35 | 54 | 87 | 11 | 39 | – | – | – | – | – | – | – | – | – | C/C=C1\NC(=O)c2cccc(n2)CNC(=O)C[C@@H](/C=C/CCSC(C)=O)OC(=O)[C@H](C(C)C)NC1=O [Compound 7] | GI50 [2, 17]: 30 nM; GI50 [3, 19]: 40 nM; GI50 [3, 20]: 40 nM; GI50 [4, 21]: 30 nM; GI50 [4, 22]: 30 nM; GI50 [6, 23]: 20 nM; GI50 [6, 24]: 27 nM; GI50 [8, 25]: 10 nM; GI50 [8, 26]: 13 nM; GI50 [9, 27]: 20 nM; GI50 [9, 28]: 21 nM; GI50 [11, 29]: 5 nM; GI50 [13, 30]: 50 nM; GI50 [13, 31]: 52 nM; IC50 (HDAC1; [33]): < 500 nM; IC50 (HDAC1; Table 3, read-out: IC50 HDAC1, D (non-substituent)): 87 nM
– | – | 56 | 94 | 44 | 12 | 34 | 35 | 91 | – | 13 | 40 | 10 | 50 | 60 | 130 | 50 | 100 | 60 | 80 | C/C=C1\NC(=O)c2nc(ccc2SC)CNC(=O)C[C@@H](/C=C/CCSC=O)OC(=O)[C@H](C(C)C)NC1=O [Compound 168] | IC50 (HDAC11): 99 nM
6 | 43 | 38 | 63 | 91 | 45 | 42 | 85 | 8 | 19 | 47 | 60 | 40 | 40 | 50 | 20 | 30 | 70 | 230 | 30 | C/C=C1\NC(=O)c2cccc(n2)CNC(=O)C[C@@H](/C=C/CCSC(=O)CCCCCCC)OC(=O)CNC1=O [Compound 235] | GI50 [3, 20]: 47 nM; GI50 [4, 22]: 56 nM; GI50 [6, 24]: 24 nM; GI50 [8, 26]: 3 nM; GI50 [9, 28]: 7 nM; GI50 [11, 29]: 230 nM; GI50 [13, 31]: 34 nM; IC50 (HDAC1; [33]): < 10 nM
110 | 1020 | 21 | 41 | 38 | 47 | 32 | 53 | 90 | 235 | 132 | 110 | 1020 | 10 | 310 | 10 | 20 | 910 | 870 | 110 | CCCCCCCC(=O)SCC/C=C/[C@@H]1CC(=O)NCc2cccc(n2)C(=O)NCC(=O)N[C@@H](C(C)C)C(=O)O1 [Compound 246] | GI50 [3, 20]: 13 nM; GI50 [4, 22]: 310 nM; GI50 [6, 24]: 17 nM; GI50 [8, 26]: 20 nM; GI50 [9, 28]: 910 nM; GI50 [11, 29]: 870 nM; GI50 [13, 31]: 110 nM; IC50 (HDAC1; [33]): < 100 nM
– | – | 53 | 39 | 38 | 65 | 28 | 23 | 68 | – | 35 | 20 | 70 | 50 | 10 | 40 | 10 | 20 | 10 | 50 | C/C=C1\NC(=O)c2nc(ccc2SC)CNC(=O)C[C@@H](/C=C/CCSC(=O)CCCCCCC)OC(=O)[C@H](CC)NC1=O [Compound 171] | IC50 (HDAC11): 95 nM
– | – | 37 | 61 | 61 | 37 | 26 | 61 | 64 | 276 | 453 | – | – | – | – | – | – | – | – | – | C/C=C1\NC(=O)c2nc(ccc2F)CNC(=O)C[C@@H](/C=C/CCSC(C)=O)OC(=O)[C@H](CCCCN)NC1=O [Compound 72] | GI50 ([1]; 72 hours incubation, read-out: GI50 U93): 30 nM; GI50 [2, 17]: 60 nM; GI50 [3, 19]: 40 nM; GI50 [4, 21]: 30 nM; GI50 [6, 23]: 60 nM; GI50 [8, 25]: 30 nM; GI50 [9, 27]: 30 nM; GI50 ([11]; 72 hours incubation, read-out: GI50 PAN): 60 nM; GI50 [13, 30]: 20 nM; IC50 (HDAC1; Table 3, column C, read-out: IC50 HDAC1, C (six-membered ring with substituents)): 64 nM
